# Experimental data taken from US12392778B2, “Method for proteome-wide discovery of covalent ligands and compositions thereof” (BridGene Biosciences, Inc., priority 2019, dated 2025).
# Tested on: SK-MEL-28 tumor cells
# Assay: Melanoma CDX model, SK-MEL-28 tumor growth
# Type: in vivo, BALB/c nude mice
# Conditions: 60 mg/kg subcutaneously twice a day for 5 days, then once a day for 9 days; not statistically significant
# Description: For this model, BALB/c nude mice were inoculated subcutaneously (sc) with SK-MEL-28 tumor cells (5×10^6 in 0.1 mL PBS and Matigel, 1:1). […] Throughout the treatment period, tumor sizes were recorded. […] Vehicle control consisted of 5% DMSO and 95% of a 20% 2-hydroxypropyl-beta-cyclodextrin solution. Eight female mice were included in each group. t-test was done using GraphPad Software.
structure (smiles),measurement,value
C#CCOc1cccc(Nc2ncnc3ccc(NC(=O)CCl)cc23)c1 [Compound 1],Tumor size compared to control,reduce tumor size compared to control starting at day 8
